{
  "source": "patent US11446282B2",
  "about": "“Methods of treating mixed dyslipidemia and hypertriglycertdemia” (Kowa Company, Ltd., priority 2017, dated 2022)",
  "key": {"[1]": {"system": "apolipoprotein (Apo) A1 transgenic mice", "assay": "TG decrease and HDL-C increase in Apo A1 transgenic mice", "assay_type": "in vivo", "settings": "versus fenofibrate"}, "European patients": {"system": "European patients", "assay": "Study K-877-201, Phase 2 dose-finding study conducted in Europe", "assay_type": "in vivo, human", "protocol": "In previous clinical trials, pemafibrate has been administered at doses ranging from 0.1 mg to 1.6 mg per day in healthy adults. Doses up to 0.4 mg per day have been administered in patients with dyslipidemia. […] Increases in LDL-C, both by beta quantification and calculation with the Friedewald equation, were also observed. Based on analysis of efficacy variables, pemafibrate appeared to have a lowering effect on Apo C3 that led to the conversion of VLDL particles to LDL particles, increasing the fraction of larger LDL particles, and reducing TG levels. Similarly, the reduction of Apo C3 led to increased removal of remnant-like particles and lowering of Apo B48. […] The observed increases in Apo A1 and HDL-C resulted from both increased production of Apo A1 in the liver and increased turnover of TG-rich lipoproteins, both of which were associated with a decreased CHD risk."}, "[2]": {"assay": "Urinary excretion in nonclinical and clinical studies", "assay_type": "in vivo"}, "[3]": {"system": "major drug metabolizing enzymes in the liver", "assay": "Inhibition of major drug metabolizing enzymes in the liver", "assay_type": "in vitro ADME"}, "[4]": {"system": "organic anion-transporting polypeptide (OATP)", "assay": "Drug-drug interaction with strong OATP inhibitors"}, "[5]": {"assay": "Study K-877-12, pharmacokinetics in patients with renal impairment", "assay_type": "in vivo, human", "settings": "Japanese patients with renal impairment, even severe"}, "[6]": {"system": "dyslipidemic patients with statin", "assay": "Example 4 pooled analysis: lipoprotein subclasses by HPLC, with statin, by eGFR", "assay_type": "in vivo, human", "settings": "for Small HDL-C % Change from baseline to week 12 / Small LDL-C % Change from baseline to week 12 / Very small HDL-C % Change from baseline to week 12 / Very small LDL-C % Change from baseline to week 12: LS mean", "protocol": "The present study analyzed data combined from 6 randomized double-blind placebo-controlled studies that were conducted in Japan and continued for 12 weeks unless otherwise noted: a phase 2 study in 224 patients with a history of documented dyslipidemia and plasma TG of 200 mg/dL (2.26 mmol/L) or higher, randomized to placebo, pemafibrate 0.05, 0.1, 0.2, 0.4 mg/day, or fenofibrate 100 mg/day; a phase 3 study in 526 patients with dyslipidemia, high TG levels, and low HDL-C levels, randomized to placebo, pemafibrate 0.1, 0.2, or 0.4 mg/day, or fenofibrate 100 or 200 mg/day; a study in 188 patients with dyslipidemia, randomized to pitavastatin in combination with pemafibrate 0.1, 0.2, or 0.4 mg/day; a 24-week study in 423 patients with dyslipidemia, randomized to pemafibrate 0.2 mg/day (fixed dose) or 0.2 [0.4] mg/day (conditional up-titration) with any statin; a 24-week phase 3 study in 166 patients with type 2 diabetes and hypertriglyceridemia, randomized to placebo or pemafibrate 0.2 or 0.4 mg/day; and a study in 27 patients with hypertriglyceridemia and insulin resistance, randomized to pemafibrate 0.4 mg/day or placebo. All studies were approved by the Institutional Review Board for each study institution and were conducted in accordance with the Declaration of Helsinki and under the guidelines of Good Clinical Practice.\nIn this study, we evaluated the efficacy and safety of pemafibrate at doses of 0.1 mg/day, 0.2 mg/day, and 0.4 mg/day, with and without statin. The primary efficacy endpoint was percent change in TG from baseline to 12 weeks. The secondary efficacy endpoints were also assessed from baseline to 12 weeks: percent change in HDL-C, LDL-C, non-HDL-C, TC, RemL-C, Apo AI, Apo AII, Apo B, Apo B48, Apo CII, Apo CIII, Apo CIII/Apo CII, and Apo E; percent change in HPLC findings for CM-C, VLDL-C, cholesterol content in 4 subclasses of LDL (large, medium, small, and very small LDLs), and cholesterol content for 5 subclasses of HDL (very large, large, medium, small, and very small HDLs); and changes in fibrinogen and FGF21. The primary safety endpoints were the incidence of adverse events and adverse drug reactions. Secondary safety endpoints were percentage of values above the upper limit of normal range for AST, ALT, sCr and CK, and change in sCr eGFR, CK, AST, ALT, gamma-glutamyl transferase (γ-GT), alkaline phosphatase (ALP), and total bilirubin.\nPatients with renal dysfunction were defined as those with baseline eGFR<60 mL/min/1.73 m^2. Analysis was stratified by the presence or absence of renal dysfunction in the concomitant statin group, and efficacy and safety of pemafibrate were evaluated. In efficacy and safety evaluations excluding AEs, ADRs, and cutoff values for AST, ALT, sCr, and CK, findings were combined for pemafibrate subgroups receiving doses of 0.1 mg/day, 0.2 mg/day, and 0.4 mg/day.\nFor each lipid parameter, gel filtration HPLC was performed at Skylight Biotech, Inc. Other measurements were performed at LSI Medience Corporation. The FAS was used for analyzing efficacy parameters of effects on lipids, fibrinogen, and FGF21. The safety analysis set was used for safety parameters and included all patients who received at least one dose of the study drug. For lipid parameters, fibrinogen, and FGF21, LS means (95% confidence interval) were calculated at Week 12 (LOCF) using analysis of covariance (ANCOVA) with baseline values as the co-variable within each category. For safety parameters, LS means (95% confidence interval) were calculated at Week 12 using ANCOVA with baseline values as the co-variable within each category. SAS version 9.2 was used for analyses."}, "[7]": {"settings": "baseline to Week 12, last observation carried forward"}, "[8]": {"settings": "Baseline eGFR < 60 mL/min/1.73 m^2, 0.1-0.4 mg/day"}, "[9]": {"settings": "Baseline eGFR ≥ 60 mL/min/1.73 m^2, 0.1-0.4 mg/day"}},
  "data": [
    {"smiles": "CC[C@@H](Oc1cccc(CN(CCCOc2ccc(OC)cc2)c2nc3ccccc3o2)c1)C(=O)O", "note": "[Pemafibrate, (2R)-2-[3-({1,3-benzoxazol-2-yl[3-(4-methoxyphenoxy)propyl]amino}methyl)phenoxy]butanoic acid]", "values": [
      {"measurement": "potency in decreasing TG and increasing HDL-C", "setting": "[1]", "result": "more potent than fenofibrate"},
      {"measurement": "placebo-adjusted TG reduction", "setting": "European patients; 0.2 mg twice daily", "result": 54.4, "unit": "%"},
      {"measurement": "Apo A1 change", "setting": "European patients; [7]", "result": "increases"},
      {"measurement": "Apo A2 change", "setting": "European patients; [7]", "result": "increases"},
      {"measurement": "Apo B48 change", "setting": "European patients; [7]", "result": "decreases"},
      {"measurement": "Apo C2 change", "setting": "European patients; [7]", "result": "decreases"},
      {"measurement": "Apo C3 change", "setting": "European patients; [7]", "result": "decreases"},
      {"measurement": "FGF21 change", "setting": "European patients; [7]", "result": "increases"},
      {"measurement": "HDL-C change", "setting": "European patients; [7]", "result": "increases"},
      {"measurement": "VLDL-C change", "setting": "European patients; [7]", "result": "decreases"},
      {"measurement": "LDL-C change", "setting": "European patients; by beta quantification and Friedewald equation", "result": "Increases"},
      {"measurement": "non-HDL-C change", "setting": "European patients; in vivo", "result": "decrease"},
      {"measurement": "total Apo B levels change", "setting": "European patients; in vivo", "result": "no changes"},
      {"measurement": "efficacy in TG reduction and HDL-C elevation", "setting": "European patients; twice daily compared to once daily", "result": "Greater efficacy"},
      {"measurement": "urinary excretion", "setting": "[2]", "result": "low"},
      {"measurement": "inhibitory effects on major drug metabolizing enzymes in the liver", "setting": "[3]", "result": "minimal"},
      {"measurement": "interaction with strong OATP inhibitors (e.g., cyclosporine and rifampin)", "setting": "[4]", "result": "interact"},
      {"measurement": "differences in pharmacokinetics (PK) with renal impairment", "setting": "[5]", "result": "no meaningful differences"},
      {"measurement": "Small HDL-C Week 12 (LOCF)", "setting": "[6]; [8]", "result": 0.484, "unit": "mmol/L"},
      {"measurement": "Small LDL-C Week 12 (LOCF)", "setting": "[6]; [8]", "result": 0.577, "unit": "mmol/L"},
      {"measurement": "Very small HDL-C Week 12 (LOCF)", "setting": "[6]; [8]", "result": 0.208, "unit": "mmol/L"},
      {"measurement": "Very small LDL-C Week 12 (LOCF)", "setting": "[6]; [8]", "result": 0.229, "unit": "mmol/L"},
      {"measurement": "Small HDL-C % Change from baseline to week 12", "setting": "[6]; [8]", "result": 34.9, "unit": "%"},
      {"measurement": "Small LDL-C % Change from baseline to week 12", "setting": "[6]; [8]", "result": "−7.8", "unit": "%"},
      {"measurement": "Very small HDL-C % Change from baseline to week 12", "setting": "[6]; [8]", "result": 25.2, "unit": "%"},
      {"measurement": "Very small LDL-C % Change from baseline to week 12", "setting": "[6]; [8]", "result": "−14.6", "unit": "%"},
      {"measurement": "Small HDL-C Week 12 (LOCF)", "setting": "[6]; [9]", "result": 0.470, "unit": "mmol/L"},
      {"measurement": "Small LDL-C Week 12 (LOCF)", "setting": "[6]; [9]", "result": 0.576, "unit": "mmol/L"},
      {"measurement": "Very small HDL-C Week 12 (LOCF)", "setting": "[6]; [9]", "result": 0.204, "unit": "mmol/L"},
      {"measurement": "Very small LDL-C Week 12 (LOCF)", "setting": "[6]; [9]", "result": 0.231, "unit": "mmol/L"},
      {"measurement": "Small HDL-C % Change from baseline to week 12", "setting": "[6]; [9]", "result": 26.7, "unit": "%"},
      {"measurement": "Small LDL-C % Change from baseline to week 12", "setting": "[6]; [9]", "result": "−6.0", "unit": "%"},
      {"measurement": "Very small HDL-C % Change from baseline to week 12", "setting": "[6]; [9]", "result": 19.4, "unit": "%"},
      {"measurement": "Very small LDL-C % Change from baseline to week 12", "setting": "[6]; [9]", "result": "−12.5", "unit": "%"},
      {"measurement": "small and very small LDL-C and HDL particle sizes (observation)", "setting": "[6]; lower eGFR group", "result": "improvements"}
    ]}
  ]
}
